In patent US8637558B2 (Industry-Academic Cooperation Foundation, Chosun University, priority 2008, dated 2014):

Biological target: 15-PGDH (Homo sapiens (Human), UniProt P15428)
Assay: Assay for the activities of 15-PGDH inhibitors (formation of NADH at 340 nm)
Assay type: biochemical
Conditions: purified 15-PGDH enzyme, 21 μM PGE2, 0.25 mM NAD+, pH 7.5; concentration inhibiting 50% of 15-PGDH activity
Description: <1-1> Expression and Purification of 15-PGDH
A 15-PGDH cDNA plasmid containing BamHI and EcoRI sites of the pGES-2T expression vector was used to transform Escherichia coli BL-21 lysS in accordance with the ordinarily used in the art. The transformed cells were grown in 500 mL LB medium containing 50 μg/mL ampicillin at 37° C. while being stirred at 220 rpm until the OD600 reached 0.6. Isopropyl β-D-thiogalactoside (1 mM) was added and the cells were allowed to grow for 12 hours at 25° C. Then, the pellets were harvested by centrifugation at 4000×g for 30 minutes at 4° C. The cell pallets were resuspended in 20 mL cell lysis buffer (1×PBS buffer (pH 7.4) containing 1 mM EDTA and 0.1 mM DTT) and sonicated (14×10 s at 4° C.). The disrupted cells were centrifuged at 4000×g for 20 minutes at 4° C. The supernatant was loaded slowly on a glutathione-sepharose 4B column, which was equilibrated at 4° C. with a cell lysis buffer (1×PBS buffer (pH 7.4) containing 1 mM EDTA and 0.1 mM DTT). The column was washed with the lysis buffer until OD280 reached below 0.005. Then, 15-PGDH was eluted from the glutathione-sepharose 4B column at room temperature for 5 minutes by using the elution buffer (50 mM Tris-HCl (pH 8.0) containing 10 mM reduced glutathione, 1 mM EDTA and 0.1 mM DTT). The concentration and the purity of the purified enzyme were determined by SDS-PAGE.
<1-2> Assay for the Activities of 15-PGDH Inhibitors
The absorbance of the reaction mixture was recorded at 340 nm so that the activities of the derivatives according to the present invention as 15-PGDH inhibitors were determined from a standard curve prepared from the absorbance of various concentrations of NADH at 340 nm.

Chain of 15-PGDH (P15428 whole entry): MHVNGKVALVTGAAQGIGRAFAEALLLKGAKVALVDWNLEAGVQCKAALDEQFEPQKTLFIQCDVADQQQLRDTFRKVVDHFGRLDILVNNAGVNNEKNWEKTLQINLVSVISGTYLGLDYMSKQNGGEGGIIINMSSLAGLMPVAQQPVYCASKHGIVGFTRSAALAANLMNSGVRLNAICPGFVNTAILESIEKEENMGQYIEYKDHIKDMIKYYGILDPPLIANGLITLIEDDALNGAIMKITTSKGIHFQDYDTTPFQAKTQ

IC50 [nM]	SMILES
526	O=C1NC(=O)C(Cc2ccc(OCC3CCCCC3)c(Cl)c2)S1 (centres unmarked)
125	O=C1NC(=O)C(Cc2ccc(OCC3CCCCC3)c(Cl)c2)S1 (single isomer, unassigned)
961	CC(C)OCCOc1ccc(/C=C2\SC(=O)NC2=O)cc1 [Derivative 1, 5-(4-(2-isopropoxyethoxy)benzylidene)thiazolidine-2,4-dione]
515	O=C1NC(=O)/C(=C/c2ccc(OCCN3CCOCC3)cc2)S1 [Derivative 2, 5-(4-(2-morpholinoethoxy)benzylidene)thiazolidine-2,4-dione]
95.9	O=C1NC(=O)/C(=C/c2ccc(OCCc3cccs3)cc2)S1 [Derivative 3, 5-(4-(2-(thiophen-2-yl)ethoxy)benzylidene)thiazolidine-2,4-dione]
148	O=C1NC(=O)/C(=C/c2ccc(OCCc3ccsc3)cc2)S1 [Derivative 4, 5-(4-(2-(thiophen-3-yl)ethoxy)benzylidene)thiazolidine-2,4-dione]
1370	O=C1NC(=O)/C(=C/c2ccc(OCCN3CCS(=O)(=O)CC3)cc2)S1 [Derivative 5, 5-[4-(2-thiomorpholine-1,1-dioxideethoxy)benzylidene]thiazolidine-2,4-dione]
592	O=C1NC(=O)/C(=C/c2ccc(OCCc3ccccn3)cc2)S1 [Derivative 6, 5-(4-(2-(pyridin-2-yl)ethoxy)benzylidene)thiazolidine-2,4-dione]
2610	O=C1NC(=O)/C(=C/c2ccc(OCCNC3CCCCC3)cc2)S1 [Derivative 7, 5-(4-(2-(cyclohexylamino)ethoxy)benzylidene)thiazolidine-2,4-dione]
23	COc1cc(/C=C2\SC(=O)NC2=O)ccc1OCCC1CCCCC1 [Derivative 8, 5-(4-(2-cyclohexylethoxy)-3-methoxybenzylidene)thiazolidine-2,4-dione]
55	Cc1cc(/C=C2\SC(=O)NC2=O)ccc1OCCC1CCCCC1 [Derivative 9, 5-(4-(2-cyclohexylethoxy)-3-methylbenzylidene)thiazolidine-2,4-dione]
94.5	COc1cc(/C=C2\SC(=O)NC2=O)cc(OC)c1OCCC1CCCCC1 [Derivative 10, 5-(4-(2-cyclohexylethoxy)-3,5-dimethoxybenzylidene)thiazolidine-2,4-dione]
7.2	O=C1NC(=O)/C(=C/c2ccc(OCCC3CCCCC3)c(Cl)c2)S1 [Derivative 11, 5-(3-chloro-4-(2-cyclohexylethoxy)benzylidene)thiazolidine-2,4-dione]
327	O=C1NC(=O)/C(=C/c2ccc(OCCCC3CCCCC3)c([N+](=O)[O-])c2)S1 [Derivative 12, 5-(4-(3-cyclohexylpropoxy)-3-nitrobenzylidene)thiazolidine-2,4-dione]
689	O=C1NC(=S)/C(=C/c2ccc(OCCC3CCCCC3)cc2)S1 [Derivative 13, 5-(4-(2-cyclohexylethoxy)benzylidene)-4-thioxothiazolidin-2-one]
1430	O=C1NC(=O)/C(=C/c2ccc(OCCN3CCCCC3)cc2)S1 [Derivative 14, 5-(4-(2-(piperidin-1-yl)ethoxy)benzylidene)thiazolidine-2,4-dione]
6.6	O=C1NC(=O)/C(=C/c2ccc(OCCC3CCCCC3)c(Br)c2)S1 [Derivative 15, 5-(3-bromo-4-(2-cyclohexylethoxy)benzylidene)thiazolidine-2,4-dione]
71.9	O=C1NC(=O)/C(=C/c2ccc(OCCC3CCCCC3)c(C(F)(F)F)c2)S1 [Derivative 16, 5-(4-(2-cyclohexylethoxy)-3-(trifluoromethyl)benzylidene)thiazolidine-2,4-dione]
19.6	O=C1NC(=O)/C(=C/c2ccc(OCCC3CCCCC3)cc2Cl)S1 [Derivative 18, 5-(2-chloro-4-(2-cyclohexylethoxy)benzylidene)thiazolidine-2,4-dione]
1170	Cc1ncsc1CCOc1ccc(/C=C2\SC(=O)NC2=O)cc1 [Derivative 19, 5-(4-(2-(4-methylthiazol-5-yl)ethoxy)benzylidene)thiazolidine-2,4-dione]
50.8	O=C1NC(=O)/C(=C/c2ccc(OCCC3CCCCC3)c(F)c2)S1 [Derivative 20, 5-(4-(2-cyclohexylethoxy)-3-fluorobenzylidene)thiazolidine-2,4-dione]
3040	O=C1NC(=O)/C(=C/c2ccc(OCCCN3CCS(=O)(=O)CC3)cc2)S1 [Derivative 21, 5-[4-(3-thiomorpholine-1,1-dioxidepropoxy)benzylidene]-thiazolidine-2,4-dione]

IC50 [nM]	SMILES
251	O=C1NC(=O)/C(=C/c2ccc(OCc3cccs3)cc2)S1 [Derivative 22, 5-(4-(thiophen-2-ylmethoxy)benzylidene)thiazolidine-2,4-dione]
392	O=C1NC(=O)/C(=C/c2ccc(OCc3ccsc3)cc2)S1 [Derivative 23, 5-(4-(thiophen-3-ylmethoxy)benzylidene)thiazolidine-2,4-dione]
115	O=C1NC(=O)/C(=C/c2ccc(OCCC3CCCC3)cc2)S1 [Derivative 24, 5-(4-(2-cyclopentylethoxy)benzylidene)thiazolidine-2,4-dione]
1880	O=C1NC(=O)/C(=C/c2ccc(OCc3ccco3)cc2)S1 [Derivative 25, 5-(4-(furan-2-ylmethoxy)benzylidene)thiazolidine-2,4-dione]
255	Cc1ccc(COc2ccc(/C=C3\SC(=O)NC3=O)cc2)cc1 [Derivative 27, 5-(4-(4-methylbenzyloxy)benzylidene)thiazolidine-2,4-dione]
728	COc1ccc(COc2ccc(/C=C3\SC(=O)NC3=O)cc2)cc1 [Derivative 28, 5-(4-(4-methoxybenzyloxy)benzylidene)thiazolidine-2,4-dione]
310	O=C1NC(=O)/C(=C/c2ccc(OCc3ccc4c(c3)OCO4)cc2)S1 [Derivative 29, 5-(4-(benzo[d][1,3]dioxol-5-ylmethoxy)benzylidene)thiazolidine-2,4-dione]
48.9	O=C1NC(=O)/C(=C/c2ccc(OC3CCCCC3)c(Cl)c2)S1 [Derivative 30, 5-(3-chloro-4-(cyclohexyloxy)benzylidene)thiazolidine-2,4-dione]
26.9	O=C1NC(=O)/C(=C/c2ccc(OCC3CCCCC3)c(Cl)c2)S1 [Derivative 31, 5-(3-chloro-4-(cyclohexylmethoxy)benzylidene)thiazolidine-2,4-dione]
10.3	O=C1NC(=O)/C(=C/c2ccc(OCCCC3CCCCC3)c(Cl)c2)S1 [Derivative 32, 5-(3-chloro-4-(3-cyclohexylpropoxy)benzylidene)thiazolidine-2,4-dione]
17.9	O=C1NC(=O)/C(=C/c2cccc(OCCC3CCCCC3)c2Cl)S1 [Derivative 34, 5-(2-chloro-3-(2-cyclohexylethoxy)benzylidene)thiazolidine-2,4-dione]
42.5	O=C1NC(=O)/C(=C/c2ccc(OCC3CCCC3)cc2)S1 [Derivative 35, 5-(4-(cyclopentylmethoxy)benzylidene)thiazolidine-2,4-dione]
124	O=C1NC(=O)/C(=C/c2ccc(OCc3ccc(CCl)cc3)cc2)S1 [Derivative 36, 5-(4-(4-(chloromethyl)benzyloxy)benzylidene)thiazolidine-2,4-dione]
66.4	CC1CCC(COc2ccc(/C=C3\SC(=O)NC3=O)cc2)CC1 (centres unmarked) [Derivative 37, 5-(4-((4-methylcyclohexyl)methoxy)benzylidene)thiazolidine-2,4-dione]
10100	O=C1NC(=O)/C(=C/c2ccc(O)cc2)S1 [Derivative 39, 5-(4-hydroxybenzylidene)thiazolidine-2,4-dione]
5670	COc1ccc(/C=C2\SC(=O)NC2=O)cc1 [Derivative 40, 5-(4-methoxybenzylidene)thiazolidine-2,4-dione]
5820	CCOc1ccc(/C=C2\SC(=O)NC2=O)cc1 [Derivative 41, 5-(4-ethoxybenzylidene)thiazolidine-2,4-dione]
217	O=C1NC(=O)/C(=C/c2ccc(OCC3CCCCC3)cc2)S1 [Derivative 42, 5-(4-(cyclohexylmethoxy)benzylidene)thiazolidine-2,4-dione]
547	CC1(COc2ccc(/C=C3\SC(=O)NC3=O)cc2)CCCCC1 [Derivative 43, 5-(4-((1-methylcyclohexyl)methoxy)benzylidene)thiazolidine-2,4-dione]
1040	O=C1NC(=O)/C(=C/c2ccc(OCc3ccccc3)cc2)S1 [Derivative 44, 5-(4-(benzyloxy)benzylidene)thiazolidine-2,4-dione]
822	O=C1NC(=O)/C(=C/c2ccc(OC3CCCCC3)cc2)S1 [Derivative 45, 5-(4-(cyclohexyloxy)benzylidene)thiazolidine-2,4-dione]

SMILES	IC50 [nM]
O=C1NC(=O)/C(=C/c2ccc(OCCCCC3CCCCC3)c(Cl)c2)S1 [Derivative 33, 5-(3-chloro-4-(4-cyclohexylbutoxy)benzylidene)thiazolidine-2,4-dione]	26.3
